pIC50: −log10 of the molar value.
Key:
[1] = tested on: H3 receptor; conditions: a number of acute pain models; cited from earlier work
[2] = target: T1, human H3 receptor (Homo sapiens, UniProt Q9Y5N1); experiment: In vitro H3 functional assay (cAMP response element driven luciferase reporter); type: cell-based; design: expressed in transfected cells; conditions: CHO(dhfr+)-cre-luc cells expressing human H3; forskolin 1 μM, RαMH 10 nM; read-out: hH3 functional IC50
Method: The functional activity of compounds at the H3 receptor was determined by measuring changes in the level of intracellular cAMP using a cAMP response element driven luciferase reporter assay. The changes in luciferase expression were monitored by a luminescence plate reader, Analyst HT (MDS Analytical). Increases in intracellular cAMP were readily detected upon activation of protein kinase A by forskolin (Sigma) and suppression of this response observed with the application of the H3 receptor agonist RαMH (Sigma).
CHO(dhfr^+)-cre-luc cells stably expressing human H3 receptor were routinely grown as monolayers in Minimal Essential Medium α (MEMα) (Invitrogen) supplemented with 10% dialysed FBS (Hyclone), in 5% CO2 at 37° C. 48 hours prior to assay, cells were seeded in clear-base white walled 384-well plates (Corning) at a density of 5000 cells/well. On the day of assay, growth media was removed and replaced with 15 μl of assay buffer (MEMα, 5 mg/ml fatty acid free BSA (Sigma)) per well. Cells were then incubated for 30 minutes at 37° C., 5% CO2. Compound was serially diluted in DMSO before being diluted 1:10 with assay buffer. 2.5 μl of compound diluted in assay buffer was added and cells incubated for 5 minutes at 37° C., 5% CO2. 2.5 μl of each reagent was then added in the following order: RαMH (10 nM), isobutylmethylxanthine (1-methyl-3-(2-methylpropyl)-7H-purine-2,6-dione; IBMX) (500 μM) (Sigma) and forskolin (1 μM). Cells were then incubated for 90 minutes at 37° C., 5% CO2, followed by 30 minutes at room temperature. At the end of incubation 25 μl of Steadylite reagent (Perkin Elmer) was added, plates were sealed and placed on a shaker for 5 minutes. The level of light output to determine the level of luciferase expression was then measured.
IC50 values for compounds were determined from ten point half log scale dose-response studies and represent the concentration of compound required to […] 50% inhibition of forskolin stimulated cells in the presence of RαMH alone. Curves were generated using the average of duplicate wells for each data point and analyzed using nonlinear regression of four parameter dose response.

[3] = target: T1, human H3 receptor; experiment: In vitro H3 binding assay (3H-NαMH competition binding); design: expressed in transfected cells; conditions: membranes of CHO-K1 cells expressing human H3; inhibition of specific binding of 2 nM 3H-NαMH; read-out: hH3 binding IC50
Method: The ability of compounds to bind to the H3 receptor was determined by measuring the reduction in tritiated N-α-methyl-histamine (^3H-NαMH) binding in a competition binding assay. Changes in the levels of bound radio-label were monitored by scintillation counting with a Trilux Microbeta (Perkin Elmer).
Membranes were prepared from CHO-K1 cells stably expressing human H3 receptor; routinely grown as monolayers in Ham's F12 medium (Invitrogen) supplemented with 10% Foetal Clone III (Hyclone), 500 μg/ml G418 (Invitrogen), 5 μg/ml blasticidine S (Invivogen) and 50 μg/ml Gentamicin (Sigma) in 5% CO2 at 37° C. Cells were grown to 80-95% confluency, rinsed once with 1×PBS (Invitrogen) and detached by incubating with 1×PBS containing 0.02% EDTA (Sigma) for 10 minutes at room temperature. Cells were collected by centrifugation at 900×g, 4° C. for 10 minutes. Cells were rinsed once with 1×PBS and re-suspended in ice cold homogenisation buffer (50 mM Tris-HCl (pH 7.4), 2.5 mM EDTA, 5 mM MgCl2, 200 mM Sucrose) at 1×10^7 cells/ml and kept on ice. Cells were homogenised on ice and debris removed by centrifugation at 500×g, 4° C. for 5 minutes. The resulting supernatant was centrifuged at 75,600×g, 4° C. for 60 minutes. Membranes were suspended in homogenisation buffer, protein concentration was determined (BCA Protein Assay kit (Pierce)), diluted to 2.2 mg/ml, dispensed into 1 ml aliquots and stored at −80° C.
Membranes were thawed on ice, sonicated with 4 cycles of 20 pulses (50% amplitude, 0.5 pulse) (UP200S Hielscher) on ice, diluted in assay buffer (50 mM Tris-HCl (pH7.4), 5 mM MgCl2) to 62.5 μg/ml. Compound was serially diluted in DMSO before being diluted 1:10 with assay buffer. 5 μg of membrane in 80 μl of assay buffer was added per well of a 96 well polystyrene plate (Corning). 10 μl of compound was added per well. The assay was initiated by the addition of 10 μl of 20 nM ^3H-NαMH per well and incubated for one hour at room temperature with shaking Total binding was determined in the presence of 1% DMSO and non-specific binding was determined by the inclusion of 1 μM R-α-methyl-histamine (RαMH). Incubations were then filtered through filtermat A (Perkin Elmer) and washed three times with assay buffer. Filtermats were dried at 42° C. for two hours, scintillant added and the level of bound radioactivity determined.
IC50 values for compounds were determined from seven point log scale dose-response studies and represent the concentration of compound required to inhibit 50% of the specific binding of 2 nM ^3H-NαMH (difference between total and non-specific binding). Curves were generated using the average of duplicate wells for each data point and analyzed using nonlinear regression of sigmoidal dose response (variable slope).

[4] = target: T2, H3 receptor (Rattus norvegicus, UniProt Q9QYN8); conditions: cited from earlier work
T2 construct: host or cells: living rat (endogenous receptor)
T2 sequence (Q9QYN8 whole entry): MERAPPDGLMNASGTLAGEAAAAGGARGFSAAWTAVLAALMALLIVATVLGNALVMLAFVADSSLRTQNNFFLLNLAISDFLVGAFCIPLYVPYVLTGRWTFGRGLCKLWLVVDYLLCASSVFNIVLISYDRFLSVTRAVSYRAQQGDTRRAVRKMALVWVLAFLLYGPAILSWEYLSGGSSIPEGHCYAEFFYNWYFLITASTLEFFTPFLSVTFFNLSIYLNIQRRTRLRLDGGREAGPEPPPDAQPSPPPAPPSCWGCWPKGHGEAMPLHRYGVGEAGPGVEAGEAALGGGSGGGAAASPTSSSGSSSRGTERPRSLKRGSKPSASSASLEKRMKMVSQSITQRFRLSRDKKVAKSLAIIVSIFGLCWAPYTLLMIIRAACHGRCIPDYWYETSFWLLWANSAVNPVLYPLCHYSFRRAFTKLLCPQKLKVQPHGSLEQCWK

[5] = target: T3, H3 receptor (Mus musculus, UniProt P58406); conditions: lean and obese mice; cited from earlier work
T3 construct: host or cells: living mouse (endogenous receptor)
T3 sequence (P58406 whole entry): as the sequence (Q9QYN8 whole entry) above, with T15A, A286T, A290G, R387H, I389V counted along it

[6] = target: T3, H3 receptor; conditions: mice; cited from earlier work
[7] = target: T2, H3 receptor; conditions: cited from earlier work; remark: listed apart in the source
[8] = target: rat H3 receptors (Rattus norvegicus, UniProt Q9QYN8); conditions: cited from earlier work
rat H3 receptors, sequence (Q9QYN8 whole entry): as the sequence (Q9QYN8 whole entry) above

[9] = target: T1, human H3 receptor; conditions: cited from earlier work

T1 sequence (Q9Y5N1 whole entry): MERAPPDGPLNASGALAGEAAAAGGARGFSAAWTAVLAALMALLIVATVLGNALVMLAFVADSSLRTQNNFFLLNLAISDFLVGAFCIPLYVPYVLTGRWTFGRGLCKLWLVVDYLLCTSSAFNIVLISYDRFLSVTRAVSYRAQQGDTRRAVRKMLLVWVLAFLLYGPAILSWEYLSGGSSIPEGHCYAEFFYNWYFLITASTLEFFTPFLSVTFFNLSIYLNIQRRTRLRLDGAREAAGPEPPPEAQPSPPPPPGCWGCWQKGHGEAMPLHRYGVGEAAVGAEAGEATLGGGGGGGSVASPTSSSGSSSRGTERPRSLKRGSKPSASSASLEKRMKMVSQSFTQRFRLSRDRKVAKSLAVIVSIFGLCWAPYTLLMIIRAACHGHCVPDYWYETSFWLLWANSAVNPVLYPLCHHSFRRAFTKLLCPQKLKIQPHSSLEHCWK

Structure (SMILES)	pIC50 [2]	pIC50 [3]	further results
S=C(NC1CCCCC1)N1CCC(c2cnc[nH]2)CC1 [thioperamide]	–	–	antinociceptive effect [1]: antinociceptive effect
C[C@H]1CC[C@H](C)N1CCCOc1ccc(-c2ccc(C(=O)N3CCOCC3)cc2)cc1 [Example A-349821]	–	–	cognition-enhancing effects [4]: cognition-enhancing effects
O=C(NCc1ccc2c(c1)CCN(C1CCC1)CC2)c1cnc(N2CCC(F)(F)CC2)nc1 [Example 5, N-((3-cyclobutyl-2,3,4,5-tetrahydro-1H-3-benzazepin-7-yl)methyl)-2-(4,4-difluoropiperidin-1-yl)pyrimidine-5-carboxamide]	8.52	9.00	–
NC(=NCc1ccc(Cl)cc1)SCCCc1cnc[nH]1 [clobenpropit]	–	–	energy intake [5]: reducing energy intake; histamine release in the hypothalamus [6]: increases histamine release
CC(C)N1CCCN(C(=O)C2CCN(c3ccc(C(F)(F)F)nc3)CC2)CC1 [GSK334429]	–	–	tactile allodynia [7]: reduced tactile allodynia; affinity for rat H3 receptors [8]: high affinity; affinity for human H3 receptors [9]: high affinity
CNC(=O)c1cnc(Oc2ccc3c(c2)CCN(C2CCC2)CC3)cn1 [GSK207040]	–	–	tactile allodynia [7]: reduced tactile allodynia; affinity for rat H3 receptors [8]: high affinity

Continued, in another order:

pIC50 [2]	pIC50 [3]	Structure (SMILES)	further results
9.00	9.30	CO[C@@H]1CCN(c2ncc(C(=O)NCc3ccc4c(c3)CCN(C3CCC3)CC4)cn2)C1 [Example 1, N-[(3-cyclobutyl-2,3,4,5-tetrahydro-1H-3-benzazepin-7-yl)methyl]-2-[(3R)-3-methoxypyrrolidin-1-yl]pyrimidine-5-carboxamide]	–
8.52	8.70	O=C(NCc1ccc2c(c1)CCN(C1CCC1)CC2)c1cnc(N2CCC(F)(F)C2)nc1 [Example 4, N-[(3-cyclobutyl-2,3,4,5-tetrahydro-1H-3-benzazepin-7-yl)methyl]-2-(3,3-difluoropyrrolidin-1-yl)pyrimidine-5-carboxamide]	–
8.22	8.30	CO[C@@H]1CCN(c2ncc(C(=O)N(C)Cc3ccc4c(c3)CCN(C3CCC3)CC4)cn2)C1 [Example 7, N-[(3-cyclobutyl-2,3,4,5-tetrahydro-1H-3-benzazepin-7-yl)methyl]-2-[(3R)-3-methoxypyrrolidin-1-yl]-N-methylpyrimidine-5-carboxamide]	–
8.70	8.40	CO[C@H]1CCN(c2ncc(C(=O)N(C)Cc3ccc4c(c3)CCN(C3CCC3)CC4)cn2)C1 [Example 6, N-[(3-cyclobutyl-2,3,4,5-tetrahydro-1H-3-benzazepin-7-yl)methyl]-2-[(3S)-3-methoxypyrrolidin-1-yl]-N-methylpyrimidine-5-carboxamide]	–
8.70	9.14	CO[C@@H](C)CN(C)c1ncc(C(=O)NCc2ccc3c(c2)CCN(C2CCC2)CC3)cn1 [Example 8, N-[(3-cyclobutyl-2,3,4,5-tetrahydro-1H-3-benzazepin-7-yl)methyl]-2-{[(2S)-2-methoxypropyl](methyl)amino}pyrimidine-5-carboxamide]	–
8.70	8.70	CO[C@H]1CCN(c2ncc(C(=O)NCc3ccc4c(c3)CCN(C3CCC3)CC4)cn2)C1 [Example 2, N-[(3-cyclobutyl-2,3,4,5-tetrahydro-1H-3-benzazepin-7-yl)methyl]-2-[(3S)-3-methoxypyrrolidin-1-yl]pyrimidine-5-carboxamide]	–
8.10	8.40	CO[C@H](C)CN(C)c1ncc(C(=O)NCc2ccc3c(c2)CCN(C2CCC2)CC3)cn1 [Example 9, N-[(3-cyclobutyl-2,3,4,5-tetrahydro-1H-3-benzazepin-7-yl)methyl]-2-{[(2R)-2-methoxypropyl](methyl)amino}pyrimidine-5-carboxamide]	–
8.70	8.52	COC1CN(c2ncc(C(=O)NCc3ccc4c(c3)CCN(C3CCC3)CC4)cn2)C1 [Example 3, N-((3-cyclobutyl-2,3,4,5-tetrahydro-1H-3-benzazepin-7-yl)methyl)-2-(3-methoxyazetidin-1-yl)pyrimidine-5-carboxamide]	–

From patent US20110172204A1, “COMPOUNDS AND THEIR USE” (TAKEDA PHARMACEUTICAL COMPANY LIMITED, priority 2010, published 2011)
